Laboratory results: patent US20150045610A1, “METHOD OF MODIFYING SPERMATOGENESIS, SPERMIOGENESIS AND/OR FERTILITY IN MAMMALS” (Monell Chemical Senses Center, priority 2012, published 2015)
Entries after “also recorded” stand apart in the source; their conditions may differ. Read-outs that look alike come from different tables or passages of the source.

Tests used:
sperm = sperm motility in vitro; assay type: cell-based, mouse; settings: sperm of WT and mutant mice, clofibric acid in media (2 mM elsewhere in the source)
Excerpt: We observed spermatozoa after clofibrate treatment represent cells that were able to escape the inhibition of clofibric acid, most likely due to very fast clearance and fluctuating levels in rodents. This allows some tubular cells to complete the developmental cycle. Therefore, we measured sperm concentration as an indicator of efficiency of the pharmacological block and to be able to determine the concentration that results in effective sterility. We analyzed testicular morphology, sperm production, sperm motility and sperm function in in vitro fertilization after feeding these animals with the lipid lowering drug clofibrate. We tested an acute inhibition of sperm motility and function in vitro by incubating sperm from the engineered mice (mGus−/−, mT1R3−/−, hmT1R3+) in solutions containing clofibric acid or other T1R3 inhibitors. The concentration used was similar to the one used in human treatment with fibrates (˜0.03 g/kg weight, for 3 weeks). We tested sperm motility and function in vitro of the Gα-gustducin KO mice (missing only the Gα-gustducin gene (mGus−/−)) after blocking T1R3 receptors with the rodent specific inhibitor gurmarin (3 mg/ml).
We evaluated the residual sperm that was produced by the line 7c mice in more detail. […] From all the above results, the combined lack of T1R3 and α-gustducin exerted its effect primarily at the level of developing spermatocytes in testis.

human T1R3 receptor = biological target: T1, human T1R3 receptor (Homo sapiens, UniProt Q7RTX0); experiment: sweet receptor inhibition assay (receptor activated with 2.5 mM sucralose); assay type: cell-based
T1 construct: expressed in transfected cells
T1 sequence (Q7RTX0 21-852): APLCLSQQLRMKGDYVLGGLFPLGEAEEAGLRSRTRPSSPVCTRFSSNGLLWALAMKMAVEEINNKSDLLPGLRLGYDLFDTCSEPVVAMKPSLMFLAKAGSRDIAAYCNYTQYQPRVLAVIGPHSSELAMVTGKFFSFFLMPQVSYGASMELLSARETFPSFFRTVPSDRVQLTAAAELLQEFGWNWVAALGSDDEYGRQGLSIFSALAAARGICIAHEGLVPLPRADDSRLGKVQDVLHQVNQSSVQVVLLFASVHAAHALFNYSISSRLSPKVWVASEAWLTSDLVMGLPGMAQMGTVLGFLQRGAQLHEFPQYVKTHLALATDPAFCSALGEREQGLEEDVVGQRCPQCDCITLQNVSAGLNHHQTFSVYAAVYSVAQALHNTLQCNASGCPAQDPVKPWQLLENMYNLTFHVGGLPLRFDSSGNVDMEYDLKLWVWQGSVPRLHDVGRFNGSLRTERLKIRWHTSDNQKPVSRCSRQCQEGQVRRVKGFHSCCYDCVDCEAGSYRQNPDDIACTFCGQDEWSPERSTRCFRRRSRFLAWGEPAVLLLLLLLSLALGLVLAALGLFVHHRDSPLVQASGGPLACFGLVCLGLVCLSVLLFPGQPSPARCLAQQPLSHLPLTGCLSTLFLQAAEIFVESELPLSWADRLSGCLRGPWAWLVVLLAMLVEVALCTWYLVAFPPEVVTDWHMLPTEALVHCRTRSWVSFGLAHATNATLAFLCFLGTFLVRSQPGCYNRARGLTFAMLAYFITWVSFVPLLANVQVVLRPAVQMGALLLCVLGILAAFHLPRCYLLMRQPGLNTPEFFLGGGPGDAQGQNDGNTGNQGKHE
T1 sequence (Q8TE23 20-839 partner): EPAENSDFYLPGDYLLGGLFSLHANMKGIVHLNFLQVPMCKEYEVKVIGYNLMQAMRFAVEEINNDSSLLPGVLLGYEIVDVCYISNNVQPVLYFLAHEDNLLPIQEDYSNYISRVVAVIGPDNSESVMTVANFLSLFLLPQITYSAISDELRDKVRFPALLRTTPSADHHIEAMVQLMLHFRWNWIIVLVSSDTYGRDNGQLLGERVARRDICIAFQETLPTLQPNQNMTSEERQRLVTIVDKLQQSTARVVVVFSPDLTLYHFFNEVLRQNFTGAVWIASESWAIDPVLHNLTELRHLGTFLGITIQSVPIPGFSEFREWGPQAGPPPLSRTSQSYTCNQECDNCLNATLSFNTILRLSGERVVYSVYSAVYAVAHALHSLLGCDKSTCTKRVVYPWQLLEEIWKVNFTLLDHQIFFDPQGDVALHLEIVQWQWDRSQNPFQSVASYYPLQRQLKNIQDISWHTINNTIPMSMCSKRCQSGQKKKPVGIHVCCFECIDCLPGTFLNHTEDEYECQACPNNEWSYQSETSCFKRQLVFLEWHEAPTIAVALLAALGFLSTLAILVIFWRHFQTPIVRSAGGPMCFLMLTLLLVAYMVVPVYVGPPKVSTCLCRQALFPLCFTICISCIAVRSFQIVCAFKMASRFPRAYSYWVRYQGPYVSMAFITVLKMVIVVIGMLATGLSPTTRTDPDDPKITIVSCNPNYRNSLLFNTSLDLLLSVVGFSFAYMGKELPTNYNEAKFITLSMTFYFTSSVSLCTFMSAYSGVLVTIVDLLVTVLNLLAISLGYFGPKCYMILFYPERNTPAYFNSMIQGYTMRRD
Experimental: FIG. 1 is a bar graph showing human (h), mouse (m) and chimeric mouse/human (m/h) sweet receptors activated with 2.5 mM sucralose and assayed for inhibition by certain T1R3 inhibitors or controls, measured by DF/F in %.
Chimeric receptors of T1R3 contained the extracellular portion of human or mouse receptor and the transmembrane domain and C-terminal domain from mouse or human receptor: mh indicates the presence of the mouse extracellular domain and human transmembrane domain; hm indicates the presence of the human extracellular domain and mouse transmembrane domain.

For `CC(C)(Oc1ccc(Cl)cc1)C(=O)O` [clofibric acid], which sperm motility (sperm) is on record?
Its sperm motility is “no differences; also recorded: not affected”.

What about the IC50 (human T1R3 receptor; read-out: IC50, block of the T1R3 receptor) of the same compound?
Its IC50 is 28 µM.

And the IC50 (human T1R3 receptor; read-out: IC50 values, human T1R3 inhibitors)?
The IC50 was 0.028 µM.
